Data published in patent US9688865B2, “Liquid composition, pigment dispersion liquid, and aqueous ink composition for ink jet recording” (Seiko Epson Corporation, priority 2015, dated 2017).

Tests used:
[1] = Distribution coefficient of water-octanol (log P), OECD Test Guideline 107

| SMILES | logP (physchem) | logP [1] |
| --- | --- | --- |
| OCC(CO)(CO)CO [Pentaerythritol] | -2.36 |  |
| CCCCCCCC(=O)OCC(CO)(CO)CO [Pentaerythritol caprylate, pentaerythritol caprylate] |  | 2.29 |
